Measurements as given in ChEMBL document CHEMBL5625231, “Targeting autophagy with small-molecule activators for potential therapeutic purposes” (Eur J Med Chem, 2023).
Blank lines part the entries; values can stand above or below the molecule they belong to.

What was measured:
Transcription factor EB = target: T1, Transcription factor EB (Homo sapiens, UniProt P19484); assay: Binding affinity to full length N-terminal his6-tagged human TFEB expressed in Escherichia coli by isothermal titration calorimetry analysis
T1 sequence (P19484 whole entry): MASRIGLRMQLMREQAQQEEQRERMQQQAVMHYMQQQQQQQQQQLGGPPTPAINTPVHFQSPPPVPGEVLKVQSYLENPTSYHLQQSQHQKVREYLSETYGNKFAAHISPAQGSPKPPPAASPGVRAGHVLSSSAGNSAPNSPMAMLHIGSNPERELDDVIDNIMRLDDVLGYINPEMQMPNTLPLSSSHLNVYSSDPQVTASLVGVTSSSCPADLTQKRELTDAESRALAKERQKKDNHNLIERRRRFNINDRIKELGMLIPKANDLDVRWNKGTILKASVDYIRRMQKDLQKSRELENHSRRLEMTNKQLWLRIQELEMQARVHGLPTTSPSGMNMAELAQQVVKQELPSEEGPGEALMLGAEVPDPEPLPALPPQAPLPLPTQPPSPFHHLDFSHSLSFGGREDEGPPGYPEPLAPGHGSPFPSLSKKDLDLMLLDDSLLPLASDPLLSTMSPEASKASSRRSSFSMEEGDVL

MDA-MB-231 = assay: Antiproliferative activity against human MDA-MB-231 cells assessed reduction in cell viability incubated for 24 hrs by MTT assay; assay type: functional, cell-based; conditions: MDA-MB-231, 24 h
[1] = target: T2, Serine/threonine-protein kinase ULK1 (Homo sapiens) (UniProt O75385); assay: Agonist activity at ULK1 (unknown origin) at 100 nM incubated for 60 mins in presence of ATP by ADP-glo assay relative to control; conditions: filed as agonist
T2 sequence (whole entry): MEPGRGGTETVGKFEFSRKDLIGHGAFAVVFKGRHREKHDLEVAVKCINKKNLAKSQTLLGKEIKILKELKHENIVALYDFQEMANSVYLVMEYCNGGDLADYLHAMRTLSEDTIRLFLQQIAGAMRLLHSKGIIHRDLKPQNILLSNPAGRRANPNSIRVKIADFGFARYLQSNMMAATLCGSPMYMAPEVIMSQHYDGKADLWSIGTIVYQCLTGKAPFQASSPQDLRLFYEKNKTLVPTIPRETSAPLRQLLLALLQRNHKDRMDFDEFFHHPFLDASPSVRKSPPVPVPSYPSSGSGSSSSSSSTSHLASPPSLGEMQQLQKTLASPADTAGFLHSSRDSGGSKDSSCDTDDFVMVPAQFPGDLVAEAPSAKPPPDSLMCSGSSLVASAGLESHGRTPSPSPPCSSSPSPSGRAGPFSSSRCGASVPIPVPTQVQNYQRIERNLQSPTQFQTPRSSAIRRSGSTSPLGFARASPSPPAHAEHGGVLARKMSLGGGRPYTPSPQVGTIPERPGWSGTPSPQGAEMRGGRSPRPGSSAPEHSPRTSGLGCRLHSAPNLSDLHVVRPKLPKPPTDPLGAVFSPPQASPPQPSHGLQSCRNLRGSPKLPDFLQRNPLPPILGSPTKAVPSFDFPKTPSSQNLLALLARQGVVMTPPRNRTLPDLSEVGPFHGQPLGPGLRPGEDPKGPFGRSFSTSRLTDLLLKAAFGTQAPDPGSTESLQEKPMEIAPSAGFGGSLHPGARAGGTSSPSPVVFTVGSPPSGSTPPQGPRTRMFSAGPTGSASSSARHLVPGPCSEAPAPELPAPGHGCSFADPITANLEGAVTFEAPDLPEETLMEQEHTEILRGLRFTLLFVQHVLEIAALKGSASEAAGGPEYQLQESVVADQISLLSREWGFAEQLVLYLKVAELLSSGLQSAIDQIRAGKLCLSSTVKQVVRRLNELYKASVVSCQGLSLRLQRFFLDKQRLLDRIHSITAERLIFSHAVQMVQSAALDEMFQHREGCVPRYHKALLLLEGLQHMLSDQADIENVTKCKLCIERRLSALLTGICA

[2] = Activation of AMPK in rat hepatocyte using SAMS as substrate incubated for 30 mins in presence of [gamma-33P]ATP; assay type: cell-based
Forkhead box protein O1 = Forkhead box protein O1 (Homo sapiens, UniProt Q12778); assay: Activation of FoxO1(unknown origin)
Sequence of Forkhead box protein O1 (Q12778 whole entry): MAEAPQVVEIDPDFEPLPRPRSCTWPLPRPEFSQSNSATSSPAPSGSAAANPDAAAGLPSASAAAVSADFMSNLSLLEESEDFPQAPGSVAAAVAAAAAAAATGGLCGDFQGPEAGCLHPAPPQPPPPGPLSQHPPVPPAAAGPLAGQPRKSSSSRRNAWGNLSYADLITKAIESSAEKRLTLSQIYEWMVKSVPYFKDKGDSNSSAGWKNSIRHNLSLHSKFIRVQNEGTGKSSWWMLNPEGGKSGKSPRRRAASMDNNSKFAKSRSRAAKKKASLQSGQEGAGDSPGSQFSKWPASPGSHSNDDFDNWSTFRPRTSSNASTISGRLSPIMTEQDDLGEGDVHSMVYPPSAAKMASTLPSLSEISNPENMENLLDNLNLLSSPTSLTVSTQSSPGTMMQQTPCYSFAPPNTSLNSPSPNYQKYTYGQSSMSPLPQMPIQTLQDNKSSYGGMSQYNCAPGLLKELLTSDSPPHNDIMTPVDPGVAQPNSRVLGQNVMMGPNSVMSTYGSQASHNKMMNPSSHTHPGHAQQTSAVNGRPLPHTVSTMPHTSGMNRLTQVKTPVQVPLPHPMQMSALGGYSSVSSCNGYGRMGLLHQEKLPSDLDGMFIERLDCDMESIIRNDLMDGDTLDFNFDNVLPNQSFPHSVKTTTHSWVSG

EC50 (Transcription factor EB): 2.17 µM
Compound: COc1ccccc1/C=C/C(=O)/C=C/c1ccccc1OC

IC50 (MDA-MB-231): 0.75 µM
Compound: COC(=O)Nc1nc2cc(C(=O)c3ccc(F)cc3)ccc2[nH]1 [FLUBENDAZOLE]

EC50 (Forkhead box protein O1): 0.42 µM
Compound: Cc1[nH]c2ccccc2c1CCNCc1ccc(/C=C/C(=O)NO)cc1 [PANOBINOSTAT]

Further lines, the molecule ahead of its results:

Compound: CC(C)(C)OC(=O)N1CCN(CC(OCc2ccc3ccccc3c2)c2ccc(Cl)cc2Cl)CC1 (stereo not drawn)
Activity [1]: 154%
IC50 (MDA-MB-231): 20.9 µM

Compound: CC(C)CN(CC(=O)N1CCN(CC(OCc2ccc3ccccc3c2)c2ccc(Cl)cc2Cl)CC1)CC(C)C (stereo not drawn)
Activity [1]: 196%

Compound: N#Cc1c(O)c2c(-c3ccccc3)csc2[nH]c1=O
EC50 [2]: 38 µM

Compound: N#Cc1c(O)c2c(-c3ccc(-c4ccccc4O)cc3)csc2[nH]c1=O
EC50 [2]: 0.8 µM
